Assay results published in PubChem BioAssay AID493130 (Broad Institute, 2011).
Results filed as inconclusive are left out. The source made the active and inactive calls.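 The calls were made as follows: active = signal-lowering compounds whose fitted half-maximal concentration is at most ten times their highest tested dose; inconclusive = flat fit between -30 and -70%, or poor fit; inactive = flat within 30%, signal rising, or potency beyond limit.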

Target: POS-1 (Caenorhabditis elegans) binding to mex-3 RNA
Assay: inhibitors of POS-1/mex-3 RNA binding, dose response, counter-screen for MEX-5 RNA-binding inhibitor project, biochemical, fluorescence polarization, cherry-picked samples, set 2 (AID 493130);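 also: POS-1 as maltose binding protein fusion made in E. coli with FITC RNA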;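 as to activity change, negative = inhibition: 0% = DMSO neutral wells and -100% = excess unlabeled mex3 competitor RNA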
Conditions: POS-1/mex-3 RNA fluorescence polarization, 1 h

Row | SMILES | AC50 [µM]
1 | Cc1cc(C)c2c(c1)NC(C(=O)O)C1CC=CC21 (stereo unspecified) | 6.96
2 | CCCCN1C(=O)C2Cc3c([nH]c4ccccc34)CN2C1=S (stereo unspecified) | 8.04

Same assay, conditions: POS-1/mex-3 RNA fluorescence polarization, 1 h; at 10 µM (top of the series)

Row | SMILES | activity change, negative = inhibition
3 | O=C1CS/C(=N\NC(=O)c2ccccc2)N1 | inactive
4 | Cc1ccc(S(=O)(=O)c2cc3c(=O)n4ccccc4nc3n(Cc3ccco3)c2=N)cc1C | inactive
5 | COc1ccc2nc3ccccc3nc2c1NC(=O)c1ccc(Cl)cc1 | inactive
6 | Cc1c(Br)c(=O)oc2c(Br)c(O)c(O)cc12 | inactive
7 | O=C(/C=C/Nc1ccc(S(=O)(=O)Nc2cnc3ccccc3n2)cc1)c1ccccc1 | inactive
8 | Cc1ccccc1C(=O)N=c1ccn(-c2nc3ccccc3nc2NS(=O)(=O)c2ccccc2)cc1 | inactive
9 | Cc1cccn2c(=O)c3cc(C(=O)NCCCn4ccnc4)n(C)c3nc12 | inactive
10 | CC1=C/C(=C(/c2cc(C)c(O)c(Br)c2)c2ccccc2S(=O)(=O)O)C=C(Br)C1=O | inactive
11 | CCOC(=O)C1CCN(c2nc(N)c3c(N)nc(SCC(=O)O)cc3c2C#N)CC1 | inactive
12 | O=c1cc(-c2ccccc2Cl)oc2c(NS(=O)(=O)c3ccccc3OC(F)(F)F)ccc(O)c12 | inactive
13 | Cn1c(=O)c2c(nc(NN=C3CCCCC3)n2C)n(C)c1=O | inactive
14 | COc1ccc(/C=N/NC(=S)Nc2cccc(C(=O)O)c2)cc1 | inactive
15 | O=c1cc(-c2ccccc2)oc2ccc(O)cc12 | inactive
16 | CCCCn1c(N)c(N(Cc2ccccc2OC)C(=O)C(C)C)c(=O)[nH]c1=O | inactive
17 | CCOC(=O)Cc1csc(NC(=O)c2sc3nc4c(C)cc(C)cc4cc3c2N)n1 | inactive
18 | Nc1c(C(=O)Nc2cccc(Cl)c2Cl)sc2nc(-c3cccnc3)ccc12 | inactive
19 | N=c1c(S(=O)(=O)c2ccc(Cl)cc2)cc2c(=O)n3ccccc3nc2n1CC1CCCO1 (stereo unspecified) | inactive

Row | SMILES | activity change, negative = inhibition
20 | O=C(Nc1ccc(S(=O)(=O)Nc2nccs2)cc1)c1ccc(N2C(=O)c3ccccc3C2=O)cc1 | inactive
21 | O=C(N/N=C/c1ccncc1)c1cc([N+](=O)[O-])cc([N+](=O)[O-])c1O | inactive
22 | O=[N+]([O-])c1ccc(C2=CSC3=NCCN23)cc1 | inactive
23 | COc1ccccc1N1C(=O)S/C(=C\c2cccs2)C1=O | inactive
24 | CC(C)c1ccc(N2C(=O)/C(=C/N(C)C)SC2=S)cc1 | inactive
25 | O=Cc1ccc2ccc3cccnc3c2n1 | inactive
26 | COc1ccc(CCNc2c3ccccc3nc3ccccc23)cc1OC | inactive
27 | CC(=O)c1c2c3c(c(Br)ccc3n(C)c1=O)C(=O)c1ccccc1-2 | inactive
28 | CN1CCc2c(sc(NC(=O)c3ccc(S(=O)(=O)N4CCCC4)cc3)c2C(N)=O)C1 | inactive
29 | O=C(O)CCN1C(=O)/C(=C\c2ccc(OCc3ccccc3)c(OCc3ccccc3)c2)SC1=S | inactive
30 | COc1cc(/C=N/NC(=S)Nc2cccc(C(=O)O)c2)ccc1O | inactive
31 | Cc1cc(C(=O)N/N=C/c2ccc(-c3ccc(C)c(Cl)c3)o2)n[nH]1 | inactive
32 | O=[N+]([O-])c1ccc(O)c(C=Nc2ccc3c(c2)OCCO3)c1 | inactive
33 | Cc1ccc(S(=O)(=O)c2cc3c(=O)n4ccccc4nc3n(C)c2=N)cc1 | inactive
34 | O=C(CN1C(=O)/C(=C/c2cccc(Br)c2)SC1=S)NC1=NCCS1 | inactive
35 | CN(C)c1ccc(N=Cc2nc(-c3ccccc3)oc2OC(=O)c2cccc(Br)c2)cc1 | inactive
36 | CCOC(=O)CC1=C(C(=O)OCC)C(c2ccc(OC)cc2OC)C(C#N)=C(N)O1 (stereo unspecified) | inactive
